Our source for the IC50 values is patent US10023570B2 (Array BioPharma, Inc., priority 2015, dated 2018).

SMILES strings stand for the structures. Structures can show the parent of a compound that is named as a salt.

Chain of human KDR protein in HEK-293 cells (P35968 20-1356): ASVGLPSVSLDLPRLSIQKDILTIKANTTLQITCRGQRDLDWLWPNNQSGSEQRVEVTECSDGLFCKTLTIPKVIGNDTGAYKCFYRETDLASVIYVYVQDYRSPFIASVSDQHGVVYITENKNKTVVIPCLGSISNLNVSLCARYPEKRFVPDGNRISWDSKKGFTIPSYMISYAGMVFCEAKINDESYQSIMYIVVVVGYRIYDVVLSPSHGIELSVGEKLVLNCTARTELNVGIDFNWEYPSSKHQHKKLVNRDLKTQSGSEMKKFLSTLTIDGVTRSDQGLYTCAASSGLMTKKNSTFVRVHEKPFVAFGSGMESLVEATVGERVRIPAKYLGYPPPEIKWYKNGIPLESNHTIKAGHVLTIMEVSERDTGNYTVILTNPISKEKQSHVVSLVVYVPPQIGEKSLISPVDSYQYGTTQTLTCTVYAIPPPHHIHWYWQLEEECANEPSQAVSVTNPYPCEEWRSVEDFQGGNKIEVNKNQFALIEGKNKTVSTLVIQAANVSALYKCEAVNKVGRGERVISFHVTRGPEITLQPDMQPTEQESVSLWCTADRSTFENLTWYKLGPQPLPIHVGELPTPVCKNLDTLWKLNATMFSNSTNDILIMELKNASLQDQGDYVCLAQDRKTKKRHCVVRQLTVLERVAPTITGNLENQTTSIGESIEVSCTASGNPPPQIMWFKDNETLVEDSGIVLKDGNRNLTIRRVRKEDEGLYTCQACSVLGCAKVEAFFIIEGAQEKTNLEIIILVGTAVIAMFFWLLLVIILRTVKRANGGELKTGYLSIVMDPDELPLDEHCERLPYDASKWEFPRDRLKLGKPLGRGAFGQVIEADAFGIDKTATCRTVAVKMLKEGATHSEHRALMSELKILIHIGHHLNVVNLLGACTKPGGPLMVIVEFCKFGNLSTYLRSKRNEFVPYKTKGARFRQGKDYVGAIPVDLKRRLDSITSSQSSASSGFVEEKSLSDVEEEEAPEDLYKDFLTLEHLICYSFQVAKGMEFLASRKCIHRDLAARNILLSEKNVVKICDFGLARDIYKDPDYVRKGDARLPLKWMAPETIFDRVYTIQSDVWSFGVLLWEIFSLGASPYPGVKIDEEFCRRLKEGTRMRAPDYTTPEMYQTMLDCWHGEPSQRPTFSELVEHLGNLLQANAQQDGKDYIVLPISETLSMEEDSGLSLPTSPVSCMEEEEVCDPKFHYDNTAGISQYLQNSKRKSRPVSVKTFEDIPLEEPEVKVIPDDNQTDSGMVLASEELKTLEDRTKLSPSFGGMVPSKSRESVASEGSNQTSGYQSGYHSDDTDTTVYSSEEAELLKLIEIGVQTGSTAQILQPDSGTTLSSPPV

One assay has as its target human KDR protein in HEK-293 cells (Homo sapiens (Human), UniProt P35968). The experiment in a line: KDR Cell Assay (phospho-KDR in HEK-293 cells expressing inducible KDR). The following applies: pKDR Cell HEK 10% FBS IC50, HEK-293 cells expressing inducible KDR, VEGF stimulated. It is filed as cell-based. A digest of the protocol:
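HEK-293 cells with inducible human KDR were treated with compound for 1 h in DMEM (0.25% DMSO final), then lysed. Phospho-KDR was quantified by Meso Scale immunoassay, expressed as percent of control, and IC50 taken where a 4-parameter logistic fit crossed 50 POC.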
Broadly, the IC50 is the concentration needed to halve the response being measured. Lower therefore signals greater potency. As for `Cn1cc(-c2cc(-c3ccc(N4CCC(O)(C(F)(F)F)C4)nc3)c3c(C#N)cnn3c2)cn1` (centres unmarked) [Example 531, 4-(6-(3-hydroxy-3-(trifluoromethyl)pyrrolidin-1-yl)pyridin-3-yl)-6-(1-methyl-1H-pyrazol-4-yl)pyrazolo[1,5-a]pyridine-3-carbonitrile 2,2,2-trifluoroacetate], the IC50 came out at 0.69 µM.
Turning to `COCCN1CCN(c2ccc(-c3cc(-c4cnn(C)c4)cn4ncc(C#N)c34)cn2)CC1` [Example 396, 4-(6-(4-(2-methoxyethyl)piperazin-1-yl)pyridin-3-yl)-6-(1-methyl-1H-pyrazol-4-yl)pyrazolo[1,5-a]pyridine-3-carbonitrile], the IC50 was found to be 1.46 µM.
The same measure, in the same setting: in the case of `Cn1cc(-c2cc(-c3ccc(N4CCN(C(=O)N5CC[C@@H](c6ccccc6)C5)CC4)nc3)c3c(C#N)cnn3c2)cn1` [Example 375, (S)-6-(1-methyl-1H-pyrazol-4-yl)-4-(6-(4-(3-phenylpyrrolidine-1-carbonyl)piperazin-1-yl)pyridin-3-yl)pyrazolo[1,5-a]pyridine-3-carbonitrile] it was 0.841 µM; in that of `Cn1cc(-c2cc(-c3ccc(N4CCN(C(=O)N5CCC(C6CC6)C5)CC4)nc3)c3c(C#N)cnn3c2)cn1` (centres unmarked) [Example 388, 4-(6-(4-(3-cyclopropylpyrrolidine-1-carbonyl)piperazin-1-yl)pyridin-3-yl)-6-(1-methyl-1H-pyrazol-4-yl)pyrazolo[1,5-a]pyridine-3-carbonitrile], 0.346 µM; in that of `COc1cccc(CN2CCN(c3ccc(-c4cc(-c5cnn(C)c5)cn5ncc(C#N)c45)cn3)CC2)c1` [Example 450, 4-(6-(4-(3-methoxybenzyl)piperazin-1-yl)pyridin-3-yl)-6-(1-methyl-1H-pyrazol-4-yl)pyrazolo[1,5-a]pyridine-3-carbonitrile], 0.467 µM.
Regarding `Cn1cc(-c2cc(-c3ccc(N4CCC5(CC4)CC(N)C5)nc3)c3c(C#N)cnn3c2)cn1` [Example 544, 4-(6-(2-amino-7-azaspiro[3.5]nonan-7-yl)pyridin-3-yl)-6-(1-methyl-1H-pyrazol-4-yl)pyrazolo[1,5-a]pyridine-3-carbonitrile dihydrochloride], 0.234 µM corresponded to half-maximal inhibition (IC50).
Turning to `Cn1cc(-c2cc(-c3ccc(N4CCC5(CCN(C(=O)OC(C)(C)C)C5)C4)nc3)c3c(C#N)cnn3c2)cn1` (centres unmarked) [Example 519, tert-butyl 7-(5-(3-cyano-6-(1-methyl-1H-pyrazol-4-yl)pyrazolo[1,5-a]pyridin-4-yl)pyridin-2-yl)-2,7-diazaspiro[4.4]nonane-2-carboxylate], it took 1.25 µM to reach half-maximal inhibition (IC50).

The assay is the same for the next values; noted with them: pKDR Cell HEK 10% FBS IC50, HEK-293 cells expressing inducible KDR, VEGF stimulated, 10% FBS.
As for `Cn1ccc(-c2cc(-c3ccc(N4CCN(C(=O)[C@H](O)c5ccccc5)CC4)nc3)c3c(C#N)cnn3c2)n1` [Example 272, (R)-4-(6-(4-(2-hydroxy-2-phenylacetyl)piperazin-1-yl)pyridin-3-yl)-6-(1-methyl-1H-pyrazol-3-yl)pyrazolo[1,5-a]pyridine-3-carbonitrile], it took 0.575 µM to reach half-maximal inhibition (IC50). In other words, the sub-micromolar range.
Compound `CC(C)C(C(=O)N1CCN(c2ccc(-c3cc(-c4cnn(C)c4)cn4ncc(C#N)c34)cn2)CC1)c1ccccc1` (centres unmarked) [Example 29, 6-(1-methyl-1H-pyrazol-4-yl)-4-(6-(4-(3-methyl-2-phenylbutanoyl)piperazin-1-yl)pyridin-3-yl)pyrazolo[1,5-a]pyridine-3-carbonitrile] yielded an IC50 of 0.607 µM.
With `Cn1cc(-c2cc(-c3ccc(N4CCN(C(=O)N5CCCC5)CC4)nc3)c3c(C#N)cnn3c2)cn1` [Example 125, 6-(1-methyl-1H-pyrazol-4-yl)-4-(6-(4-(pyrrolidine-1-carbonyl)piperazin-1-yl)pyridin-3-yl)pyrazolo[1,5-a]pyridine-3-carbonitrile], the IC50 worked out at 0.616 µM. This IC50 and that of the compound before are within 1.5-fold of each other.
For the compound `COC[C@H]1CCCN1C(=O)N1CCN(c2ccc(-c3cc(-c4cnn(C)c4)cn4ncc(C#N)c34)cn2)CC1` [Example 110, (R)-4-(6-(4-(2-(methoxymethyl)pyrrolidine-1-carbonyl)piperazin-1-yl)pyridin-3-yl)-6-(1-methyl-1H-pyrazol-4-yl)pyrazolo[1,5-a]pyridine-3-carbonitrile], 1.31 µM corresponded to half-maximal inhibition (IC50). This IC50 lies about 2.1-fold higher than the previous one.
As for `Cn1cc(-c2cc(-c3ccc(N4CCN(C(=O)N[C@@H]5CCOC5)CC4)nc3)c3c(C#N)cnn3c2)cn1` [Example 106, (R)-4-(5-(3-cyano-6-(1-methyl-1H-pyrazol-4-yl)pyrazolo[1,5-a]pyridin-4-yl)pyridin-2-yl)-N-(tetrahydrofuran-3-yl)piperazine-1-carboxamide], it took 1.37 µM to reach half-maximal inhibition (IC50).
On to `Cn1cc(-c2cc(-c3ccc(N4CCN(C(=O)[C@H](N)c5ccccc5)CC4)nc3)c3c(C#N)cnn3c2)cn1` [Example 48, (R)-4-(6-(4-(2-amino-2-phenylacetyl)piperazin-1-yl)pyridin-3-yl)-6-(1-methyl-1H-pyrazol-4-yl)pyrazolo[1,5-a]pyridine-3-carbonitrile bis(2,2,2-trifluoroacetate)], for which the IC50 came out at 0.612 µM. This IC50 is about 2.2-fold lower than that of the compound before.
`CC(C)[C@@H](O)C(=O)N1CC2(CCN(c3ccc(-c4cc(-c5cnn(C)c5)cn5ncc(C#N)c45)cn3)CC2)C1` [Example 216, (R)-4-(6-(2-(2-hydroxy-3-methylbutanoyl)-2,7-diazaspiro[3.5]nonan-7-yl)pyridin-3-yl)-6-(1-methyl-1H-pyrazol-4-yl)pyrazolo[1,5-a]pyridine-3-carbonitrile] displayed an IC50 of 0.574 µM.
`CC(C)C(=O)N1CCC2(CCN(c3ccc(-c4cc(-c5cnn(C)c5)cn5ncc(C#N)c45)cn3)CC2)C1` [Example 207, 4-(6-(2-isobutyryl-2,8-diazaspiro[4.5]decan-8-yl)pyridin-3-yl)-6-(1-methyl-1H-pyrazol-4-yl)pyrazolo[1,5-a]pyridine-3-carbonitrile] displayed an IC50 of 1.96 µM.
Compound `Cn1cc(-c2cc(-c3ccc(N4CCN(C[C@@H](O)c5ccccc5)CC4)nc3)c3c(C#N)cnn3c2)cn1` [Example 162, (S)-4-(6-(4-(2-hydroxy-2-phenylethyl)piperazin-1-yl)pyridin-3-yl)-6-(1-methyl-1H-pyrazol-4-yl)pyrazolo[1,5-a]pyridine-3-carbonitrile] returned an IC50 of 0.042 µM.
The same measure, in the same setting: in the case of `Cn1cc(-c2cc(-c3ccc(N4CCN(C(=O)[C@H]5CCCO5)CC4)nc3)c3c(C#N)cnn3c2)cn1` [Example 58, (R)-6-(1-methyl-1H-pyrazol-4-yl)-4-(6-(4-(tetrahydrofuran-2-carbonyl)piperazin-1-yl)pyridin-3-yl)pyrazolo[1,5-a]pyridine-3-carbonitrile] it was 0.439 µM; in that of `Cn1cc(-c2cc(-c3ccc(N4CCN(C(=O)C5CCCC5)CC4)nc3)c3c(C#N)cnn3c2)cn1` [Example 21, 4-(6-(4-(cyclopentanecarbonyl)piperazin-1-yl)pyridin-3-yl)-6-(1-methyl-1H-pyrazol-4-yl)pyrazolo[1,5-a]pyridine-3-carbonitrile], 0.54 µM.
The same measure, in the same setting: in the case of `COCC1(C(=O)N2CCN(c3ccc(-c4cc(-c5cnn(C)c5)cn5ncc(C#N)c45)cn3)CC2)CC1` [Example 353, 4-(6-(4-(1-(methoxymethyl)cyclopropanecarbonyl)piperazin-1-yl)pyridin-3-yl)-6-(1-methyl-1H-pyrazol-4-yl)pyrazolo[1,5-a]pyridine-3-carbonitrile] it was 1.71 µM; in that of `Cc1cc(C(=O)N2CCN(c3ccc(-c4cc(-c5cnn(C)c5)cn5ncc(C#N)c45)cn3)CC2)no1` [Example 37, 6-(1-methyl-1H-pyrazol-4-yl)-4-(6-(4-(5-methylisoxazole-3-carbonyl)piperazin-1-yl)pyridin-3-yl)pyrazolo[1,5-a]pyridine-3-carbonitrile 2,2,2-trifluoroacetate], 0.0912 µM.
In turn, `C[C@H](CO)Cn1cc(-c2cc(-c3ccc(N4CCN(C(=O)CC(C)(C)C)CC4)cc3)c3c(C#N)cnn3c2)cn1` [Example 307, (S)-4-(4-(4-(3,3-dimethylbutanoyl)piperazin-1-yl)phenyl)-6-(1-(3-hydroxy-2-methylpropyl)-1H-pyrazol-4-yl)pyrazolo[1,5-a]pyridine-3-carbonitrile] gave a half-maximal inhibitory concentration (IC50) of 0.864 µM. This IC50 is about 9.5-fold higher than that of the compound before.
Compound `Cn1cc(-c2cc(-c3ccc(N4CCN(C(=O)[C@H](O)c5ccccc5)CC4)nc3)c3c(Cl)cnn3c2)cn1` [Example 327, (R)-1-(4-(5-(3-chloro-6-(1-methyl-1H-pyrazol-4-yl)pyrazolo[1,5-a]pyridin-4-yl)pyridin-2-yl)piperazin-1-yl)-2-hydroxy-2-phenylethanone] came in with an IC50 of 0.606 µM.
For `Cn1cc(-c2cc(-c3ccc(N4CCN(C(=O)[C@@H](N)c5ccccc5)CC4)nc3)c3c(C#N)cnn3c2)cn1` [Example 50, (S)-4-(6-(4-(2-amino-2-phenylacetyl)piperazin-1-yl)pyridin-3-yl)-6-(1-methyl-1H-pyrazol-4-yl)pyrazolo[1,5-a]pyridine-3-carbonitrile bis(2,2,2-trifluoroacetate)], the IC50 worked out at 1.19 µM.
Still for that read-out and setting: in the case of `Cn1cc(-c2cc(-c3ccc(N4CCN(C(=O)[C@H](O)c5cccc(Cl)c5)CC4)nc3)c3ccnn3c2)cn1` [Example 322, (R)-2-(3-chlorophenyl)-2-hydroxy-1-(4-(5-(6-(1-methyl-1H-pyrazol-4-yl)pyrazolo[1,5-a]pyridin-4-yl)pyridin-2-yl)piperazin-1-yl)ethanone] it was 4.86 µM; in that of `COCC(=O)N1CCN(c2ccc(-c3cc(-c4cnn(C)c4)cn4ncc(C#N)c34)cc2)CC1` [Example 292, 4-(4-(4-(2-methoxyacetyl)piperazin-1-yl)phenyl)-6-(1-methyl-1H-pyrazol-4-yl)pyrazolo[1,5-a]pyridine-3-carbonitrile], 1.08 µM; in that of `Cn1cc(-c2cc(-c3ccc(N4CCN(C(=O)CCc5cccnc5)CC4)nc3)c3c(C#N)cnn3c2)cn1` [Example 43, 6-(1-methyl-1H-pyrazol-4-yl)-4-(6-(4-(3-(pyridin-3-yl)propanoyl)piperazin-1-yl)pyridin-3-yl)pyrazolo[1,5-a]pyridine-3-carbonitrile bis(2,2,2-trifluoroacetate)], 0.653 µM.
